Source: patent publication US7211583B2, “7-azaindoles and the use thereof as therapeutic agents” (Elbion AG, priority 2003, dated 2007)

These compounds were tested against phosphodiesterase 4 (assay: Phosphodiesterase 4 inhibition, SPA with enzyme preparation from human PMNL). Conditions: cytosolic PDE4 from human PMNL, 0.5 μM [3H]-cAMP, 37° C., 30 minutes; read-out: PDE 4 inhibition IC50.
Format: biochemical
Method: PDE4 activity is determined using enzyme preparations from human polymorphonuclear […] (PMNL). Human blood (buffy coats) was anticoagulated with citrate. A centrifugation at 700×g at room temperature (RT) for 20 minutes separates the platelet-rich plasma in the supernatant from the erythrocytes and leukocytes. The PMNLs for the PDE4 determination are isolated by a subsequent dextran sedimentation and in gradient centrifugation with Ficoll-Paque. After the cells have been washed twice, the erythrocytes which are still present are lysed by adding 10 ml of hypotonic buffer (155 mM NH4Cl, 10 mM NaHCO3, 0.1 mM EDTA, pH=7.4) at 4° C. within 6 minutes. The still intact PMNLs are then washed twice with PBS and lysed by ultrasound. The supernatant from a centrifugation at 4° C. and 48000×g for one hour contains the cytosolic fraction of PDE 4 and is employed for the PDE4 measurements.
The phosphodiesterase activity is assayed using a modified Amersham Pharmacia Biotech method, an SPA (scintillation proximity assay).
The reaction mixtures contain buffer (50 mM Tris-HCl (pH 7.4), 5 mM MgCl2, 100 μM cGMP), the inhibitors in variable concentrations and the appropriate enzyme preparation. The reaction is started by adding the substrate, 0.5 μM [^3H]-cAMP. The final volume is 100 μl. Test substances are made up as stock solutions in DMSO. The DMSO concentration in the reaction mixture is 1% v/v. The PDE activity is unaffected at this DMSO concentration. After the reaction has been started by adding substrate, the samples are incubated at 37° C. for 30 minutes. The reaction is stopped by adding a defined amount of SPA beads, and the samples are counted after one hour in a Beta counter. The nonspecific enzymic activity (the blank) is determined in the presence of 100 μM rolipram and subtracted from the test results. The incubation mixtures for the PDE4 assay contain 100 μM cGMP in order to inhibit any contamination by PDE 3.

Row | Compound | IC50 [nM]
1 | O=C(Nc1c(Cl)cncc1Cl)C(=O)c1cn(Cc2ccc(F)cc2)c2c1ccc[n+]2[O-] [Compound 1, N-(3,5-Dichloropyridin-4-yl)-[1-(4-fluorobenzyl)-7-oxo-7-azaindol-3-yl]glyoxylamide] | 52
2 | O=C(Nc1c(Cl)cccc1Cl)C(=O)c1cn(Cc2ccccc2Cl)c2c1ccc[n+]2[O-] [Compound 2, N-(2,6-Dichlorophenyl)-[1-(2-chlorobenzyl)-7-oxo-7-azaindol-3-yl]glyoxylamide] | 48
3 | O=C(Nc1c(Cl)c[n+]([O-])cc1Cl)C(=O)c1cn(Cc2ccc(F)cc2)c2ncccc12 [Compound 3, N-(3,5-Dichloro-1-oxopyridin-4-yl)-[1-(4-fluorobenzyl)-7-azaindol-3-yl]glyoxylamide] | 8
4 | O=C(Nc1c(Cl)c[n+]([O-])cc1Cl)C(=O)c1cn(Cc2ccc(F)cc2)c2c1ccc[n+]2[O-] [Compound 4, N-(3,5-Dichloro-1-oxopyridin-4-yl)-[1-(4-fluorobenzyl)-7-oxo-7-azaindol-3-yl]glyoxylamide] | 751
